Reference: patent US20230024302A1, “2,3,5-TRISUBSTITUTED PYRAZOLO[1,5-A]PYRIMIDINE COMPOUNDS” (Arcus Biosciences, Inc., priority 2019, published 2023)
pIC50: −log10 of the molar value.

Tests used:
[1] = target: T1, PI3Kγ (p120γ) (Homo sapiens, UniProt P48736); assay: Inhibition of PI3K kinase activity (ADP Glo), PI3Kγ; settings: Table 2, p120γ, read-out: biochemical potency (PI3Kγ IC50)
T1 construct: purchased Promega V1761
Summary of the method: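 Recombinant p120γ (8 nM, 2× stock) was preincubated with compound for 1 h at rt in HEPES pH 7.4, NaCl, MgCl2 and 0.05% BSA. Reaction was started with PIP2 (0.1 mg/ml, 2×) and ATP (50 μM, 2×) and ran 60 min at rt. ADP formed was read by ADP-Glo luminescence, and IC50 came from a 4-parameter fit.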

[2] = target: T2, PI3Kγ (Homo sapiens, UniProt P48736); assay: PI3Kγ cellular assay in THP-1 cells (AKT pS473 AlphaLISA); format: cell-based; settings: Table 2, rhMCP-1 stimulated AKT pS473, read-out: cellular potency (PI3Kγ IC50)
T2 construct: host or cells: THP-1
T2 sequence (P48736 whole entry): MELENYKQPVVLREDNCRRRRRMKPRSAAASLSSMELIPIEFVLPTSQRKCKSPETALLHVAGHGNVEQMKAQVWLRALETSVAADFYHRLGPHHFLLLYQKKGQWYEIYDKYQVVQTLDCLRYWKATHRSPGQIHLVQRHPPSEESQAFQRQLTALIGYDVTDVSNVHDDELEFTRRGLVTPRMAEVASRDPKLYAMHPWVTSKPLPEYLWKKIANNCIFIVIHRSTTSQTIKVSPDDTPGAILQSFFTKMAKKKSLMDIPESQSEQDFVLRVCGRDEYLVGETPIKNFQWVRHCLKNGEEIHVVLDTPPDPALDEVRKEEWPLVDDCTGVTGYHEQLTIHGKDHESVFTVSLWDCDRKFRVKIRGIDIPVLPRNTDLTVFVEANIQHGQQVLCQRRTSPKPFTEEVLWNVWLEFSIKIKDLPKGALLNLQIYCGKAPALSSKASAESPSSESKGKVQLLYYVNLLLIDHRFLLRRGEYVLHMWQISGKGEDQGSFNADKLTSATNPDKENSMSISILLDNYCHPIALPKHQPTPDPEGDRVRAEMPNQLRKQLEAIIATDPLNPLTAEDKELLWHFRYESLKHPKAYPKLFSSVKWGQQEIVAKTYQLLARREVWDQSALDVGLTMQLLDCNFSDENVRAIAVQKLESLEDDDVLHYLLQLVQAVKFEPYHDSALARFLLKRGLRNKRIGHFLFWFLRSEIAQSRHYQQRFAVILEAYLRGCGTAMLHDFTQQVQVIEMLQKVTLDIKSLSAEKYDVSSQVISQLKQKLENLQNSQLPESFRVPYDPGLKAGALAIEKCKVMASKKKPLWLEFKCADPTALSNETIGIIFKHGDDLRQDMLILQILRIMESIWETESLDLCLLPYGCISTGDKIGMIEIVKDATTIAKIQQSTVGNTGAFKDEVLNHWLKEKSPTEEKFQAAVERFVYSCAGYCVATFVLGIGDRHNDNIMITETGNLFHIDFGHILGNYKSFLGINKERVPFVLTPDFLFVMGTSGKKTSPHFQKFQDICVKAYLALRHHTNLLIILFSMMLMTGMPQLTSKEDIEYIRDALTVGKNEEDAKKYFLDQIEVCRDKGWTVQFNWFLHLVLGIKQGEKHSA
Summary of the method: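 Serum-starved THP-1 cells (1.8×10^5/well, serum-free DMEM) treated with compounds from 4 nM to 30 μM in 2% DMSO, then stimulated and lysed.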

T1 sequence (P48736 whole entry): as above

SMILES	pIC50 [1]	pIC50 [2]
Cc1cc(-c2ccn3nc(N)c(C(=O)N[C@@H](C)C(N)=O)c3n2)cc2c1C(=O)N([C@@H](C)C1CC1)C2 [Example 190]	> 7.00	6.00 to 7.00
Cc1cc(-c2ccn3nc(N)c(C(=O)N[C@@H](CO)C(C)C)c3n2)cc2c1C(=O)N([C@@H](C)C1CC1)C2 [Example 191]	> 7.00	6.00 to 7.00
Cc1cc(-c2ccn3nc(N)c(C(=O)N[C@@H](CO)c4ccccc4)c3n2)cc2c1C(=O)N([C@@H](C)C1CC1)C2 [Example 192]	> 7.00	6.00 to 7.00
Cc1cc(-c2ccn3nc(N)c(C(=O)N[C@H]4CC[C@@H](C(=O)O)CC4)c3n2)cc2c1C(=O)N([C@@H](C)C1CC1)C2 [Example 193]	> 7.00	6.00 to 7.00
CC(=O)N1CC(NC(=O)c2c(N)nn3ccc(-c4cc(C)c5c(c4)CN([C@@H](C)C4CC4)C5=O)nc23)C1 [Example 194]	> 7.00	6.00 to 7.00
Cc1cc(-c2ccn3nc(N)c(C(=O)N[C@@H](CO)C4CC4)c3n2)cc2c1C(=O)N([C@@H](C)C1CC1)C2 [Example 195]	> 7.00	6.00 to 7.00
Cc1cc(-c2ccn3nc(N)c(C(=O)N[C@H]4C[C@@](C)(O)C4)c3n2)cc2c1C(=O)N([C@@H](C)C1CC1)C2 [Example 196]	> 7.00	6.00 to 7.00
Cc1cc(-c2ccn3nc(N)c(C(=O)N[C@@H]4CC[C@H](O)C4)c3n2)cc2c1C(=O)N([C@@H](C)C1CC1)C2 [Example 197]	> 7.00	6.00 to 7.00
Cc1cc(-c2ccn3nc(N)c(C(=O)N[C@@H]4c5ccccc5C[C@H]4O)c3n2)cc2c1C(=O)N([C@@H](C)C1CC1)C2 [Example 198]	> 7.00	6.00 to 7.00
Cc1cc(-c2ccn3nc(N)c(C(=O)N[C@@H]4COC[C@H]4O)c3n2)cc2c1C(=O)N([C@@H](C)C1CC1)C2 [Example 199]	> 7.00	6.00 to 7.00
Cc1cc(-c2ccn3nc(N)c(C(=O)N[C@@H](C)C4CCOCC4)c3n2)cc2c1C(=O)N([C@@H](C)C1CC1)C2 [Example 200]	> 7.00	6.00 to 7.00
Cc1cc(-c2ccn3nc(N)c(C(=O)NCc4ccncc4)c3n2)cc2c1C(=O)N([C@@H](C)C1CC1)C2 [Example 201]	> 7.00	6.00 to 7.00
Cc1cc(-c2ccn3nc(N)c(C(=O)N[C@@H]4CNC(=O)C4)c3n2)cc2c1C(=O)N([C@@H](C)C1CC1)C2 [Example 202]	> 7.00	6.00 to 7.00
Cc1cc(-c2ccn3nc(N)c(C(=O)NCC(C)(C)O)c3n2)cc2c1C(=O)N([C@@H](C)C1CC1)C2 [Example 203]	> 7.00	6.00 to 7.00
Cc1cc(-c2ccn3nc(N)c(C(=O)N[C@H]4CC[C@@H](O)CC4)c3n2)cc2c1C(=O)N([C@@H](C)C1CC1)C2 [Example 205]	> 7.00	6.00 to 7.00
Cc1cc(-c2ccn3nc(N)c(C(=O)N[C@H](C)CO)c3n2)cc2c1C(=O)N([C@@H](C)C1CC1)C2 [Example 206]	> 7.00	6.00 to 7.00

SMILES	pIC50 [1]	pIC50 [2]
Cc1cc(-c2ccn3nc(N)c(C(=O)NCc4ccn(C)n4)c3n2)cc2c1C(=O)N([C@@H](C)C1CC1)C2 [Example 207]	> 7.00	6.00 to 7.00
Cc1cc(-c2ccn3nc(N)c(C(=O)NC4CC4)c3n2)cc2c1C(=O)N([C@@H](C)C1CC1)C2 [Example 208]	> 7.00	6.00 to 7.00
Cc1cc(-c2ccn3nc(N)c(C(=O)NC4CCN(C)CC4)c3n2)cc2c1C(=O)N([C@@H](C)C1CC1)C2 [Example 209]	> 7.00	6.00 to 7.00
Cc1cc(-c2ccn3nc(N)c(C(=O)N[C@H]4CCC[C@@H]4O)c3n2)cc2c1C(=O)N([C@@H](C)C1CC1)C2 [Example 210]	> 7.00	6.00 to 7.00
Cc1cc(-c2ccn3nc(N)c(C(=O)N[C@H]4CC[C@@H]4O)c3n2)cc2c1C(=O)N([C@@H](C)C1CC1)C2 [Example 211]	> 7.00	6.00 to 7.00
Cc1cc(-c2ccn3nc(N)c(C(=O)N[C@@H](C)c4cccnc4)c3n2)cc2c1C(=O)N([C@@H](C)C1CC1)C2 [Example 212]	> 7.00	6.00 to 7.00
Cc1cc(-c2ccn3nc(N)c(C(=O)NCC4CC4)c3n2)cc2c1C(=O)N([C@@H](C)C1CC1)C2 [Example 213]	> 7.00	6.00 to 7.00
Cc1cc(-c2ccn3nc(N)c(C(=O)NCc4cnn(C)c4)c3n2)cc2c1C(=O)N([C@@H](C)C1CC1)C2 [Example 214]	> 7.00	6.00 to 7.00
Cc1cc(-c2ccn3nc(N)c(C(=O)NC[C@H]4C[C@@H](O)C4)c3n2)cc2c1C(=O)N([C@@H](C)C1CC1)C2 [Example 215]	> 7.00	6.00 to 7.00
CNC(=O)c1c(N)nn2ccc(-c3cc(C)c4c(c3)CN([C@@H](C)C3CC3)C4=O)nc12 [Example 216]	> 7.00	6.00 to 7.00
Cc1cc(-c2ccn3nc(N)c(C(=O)N[C@@H](C)c4ccccn4)c3n2)cc2c1C(=O)N([C@@H](C)C1CC1)C2 [Example 217]	> 7.00	6.00 to 7.00
Cc1cc(-c2ccn3nc(N)c(C(=O)N[C@@H]4CCNC4)c3n2)cc2c1C(=O)N([C@@H](C)C1CC1)C2 [Example 218]	> 7.00	6.00 to 7.00
Cc1cc(-c2ccn3nc(N)c(C(=O)N[C@H](C)c4ccncc4)c3n2)cc2c1C(=O)N([C@@H](C)C1CC1)C2 [Example 219]	> 7.00	6.00 to 7.00
Cc1cc(-c2ccn3nc(N)c(C(=O)N[C@@H](C)C4CC4)c3n2)cc2c1C(=O)N([C@@H](C)C1CC1)C2 [Example 220]	> 7.00	6.00 to 7.00
Cc1cc(-c2ccn3nc(N)c(C(=O)N[C@@H](C)CO)c3n2)cc2c1C(=O)N([C@@H](C)C1CC1)C2 [Example 221]	> 7.00	6.00 to 7.00

The next lines start with the values.

pIC50 [1]	pIC50 [2]	SMILES
> 7.00	6.00 to 7.00	Cc1cc(-c2ccn3nc(N)c(C(=O)NCC(F)(F)F)c3n2)cc2c1C(=O)N([C@@H](C)C1CC1)C2 [Example 222]
> 7.00	6.00 to 7.00	Cc1cc(-c2ccn3nc(N)c(C(=O)NC(C)(C)CO)c3n2)cc2c1C(=O)N([C@@H](C)C1CC1)C2 [Example 223]
> 7.00	6.00 to 7.00	Cc1cc(-c2ccn3nc(N)c(C(=O)NC(C)C(N)=O)c3n2)cc2c1C(=O)N([C@@H](C)C1CC1)C2 (stereo partly shown) [Example 224]
> 7.00	6.00 to 7.00	Cc1cc(-c2ccn3nc(N)c(C(=O)N[C@H]4CCNC4=O)c3n2)cc2c1C(=O)N([C@@H](C)C1CC1)C2 [Example 225]
> 7.00	6.00 to 7.00	Cc1cc(-c2ccn3nc(N)c(C(=O)NCC4COC4)c3n2)cc2c1C(=O)N([C@@H](C)C1CC1)C2 [Example 226]
> 7.00	6.00 to 7.00	Cc1cc(-c2ccn3nc(N)c(C(=O)NC[C@@H](C)O)c3n2)cc2c1C(=O)N([C@@H](C)C1CC1)C2 [Example 227]
> 7.00	6.00 to 7.00	Cc1cc(-c2ccn3nc(N)c(C(=O)NC4(CCO)CC4)c3n2)cc2c1C(=O)N([C@@H](C)C1CC1)C2 [Example 228]
> 7.00	6.00 to 7.00	Cc1cc(-c2ccn3nc(N)c(C(=O)N[C@@H]4CCCC[C@H]4O)c3n2)cc2c1C(=O)N([C@@H](C)C1CC1)C2 [Example 229]
> 7.00	6.00 to 7.00	Cc1cc(-c2ccn3nc(N)c(C(=O)N[C@H](C)CN)c3n2)cc2c1C(=O)N([C@@H](C)C1CC1)C2 [Example 230]
> 7.00	6.00 to 7.00	Cc1cc(-c2ccn3nc(N)c(C(=O)N[C@@H]4CCCNC4)c3n2)cc2c1C(=O)N([C@@H](C)C1CC1)C2 [Example 231]
> 7.00	6.00 to 7.00	Cc1cc(-c2ccn3nc(N)c(C(=O)N[C@H]4CCNC4)c3n2)cc2c1C(=O)N([C@@H](C)C1CC1)C2 [Example 232]
> 7.00	6.00 to 7.00	CCNC(=O)c1c(N)nn2ccc(-c3cc(C)c4c(c3)CN([C@@H](C)C3CC3)C4=O)nc12 [Example 233]
> 7.00	6.00 to 7.00	Cc1cc(-c2ccn3nc(N)c(C(=O)NC[C@H](C)O)c3n2)cc2c1C(=O)N([C@@H](C)C1CC1)C2 [Example 234]
> 7.00	6.00 to 7.00	Cc1cc(-c2ccn3nc(N)c(C(=O)N[C@@H](C)c4cnn(C)c4)c3n2)cc2c1C(=O)N([C@@H](C)C1CC1)C2 [Example 235]
> 7.00	6.00 to 7.00	Cc1cc(-c2ccn3nc(N)c(C(=O)NCC(N)=O)c3n2)cc2c1C(=O)N([C@@H](C)C1CC1)C2 [Example 236]
> 7.00	6.00 to 7.00	Cc1cc(-c2ccn3nc(N)c(C(=O)N[C@@H](CO)C(C)(C)C)c3n2)cc2c1C(=O)N([C@@H](C)C1CC1)C2 [Example 237]
> 7.00	6.00 to 7.00	Cc1cc(-c2ccn3nc(N)c(C(=O)NC[C@@H]4CCOC4)c3n2)cc2c1C(=O)N([C@@H](C)C1CC1)C2 [Example 238]
> 7.00	6.00 to 7.00	Cc1cc(-c2ccn3nc(N)c(C(=O)N[C@H]4CC[C@@H](O)C4)c3n2)cc2c1C(=O)N([C@@H](C)C1CC1)C2 [Example 239]
> 7.00	6.00 to 7.00	Cc1cc(-c2ccn3nc(N)c(C(=O)N[C@@H]4c5ccccc5C[C@@H]4O)c3n2)cc2c1C(=O)N([C@@H](C)C1CC1)C2 [Example 240]
> 7.00	6.00 to 7.00	Cc1cc(-c2ccn3nc(N)c(C(=O)NC4CS(=O)(=O)C4)c3n2)cc2c1C(=O)N([C@@H](C)C1CC1)C2 [Example 241]
> 7.00	6.00 to 7.00	Cc1cc(-c2ccn3nc(N)c(C(=O)NC4(C)CC4)c3n2)cc2c1C(=O)N([C@@H](C)C1CC1)C2 [Example 242]
> 7.00	6.00 to 7.00	Cc1cc(-c2ccn3nc(N)c(C(=O)N[C@H]4CCCNC4)c3n2)cc2c1C(=O)N([C@@H](C)C1CC1)C2 [Example 243]
